Results: patent US12636284B2, “Compositions for use in the prevention and/or treatment of intellectual disability and neurodegenerative diseases in a subject with down syndrome” (UNIVERSITA' DEGLI STUDI DI ROMA “LA SAPIENZA”, priority 2021, dated 2026)

Columns and labels:
[1] = test system: GABAergic transmission in Ts2Cje mice; experiment: Patch-clamp electrophysiology, CA1 neurons of hippocampal sections, Ts2Cje mice; type: in vivo, mouse; conditions: Ts2Cje mice (Ts+S) vs vehicle-treated Ts2Cje, after 21 days intranasal treatment
Excerpt: The brain sections containing the hippocampus were obtained from mice belonging to the four experimental groups (Eu Veh, Eu SITA, Ts2 Veh and Ts2 SITA) at 9 months of age after being euthanized by an overdose of isofluorane. Brains were quickly removed and placed in an ice-cold cutting solution containing the following (in mM): 124 NaCl, 3.2 KCl, 1 NaH2PO4, 2 MgCl2, 1 CaCl2), 26 NaHCO3, 10 glucose, 2 Na-pyruvate and 0.6 ascorbic acid, pH 7.4, 95% O2/5% CO2. The brain sections containing the hippocampus ([…]) were cut using a vibratome (VT1000S; Leica Microsystems) and immediately transferred to an incubation chamber filled with ACSF containing the following (in mM): 124 NaCl, 3.2 KCl, 1 NaH2PO4, 1 MgCl2, 2 CaCl2, 26 NaHCO3 and 10 glucose, pH 7.4, 95% O2/5% CO2. Brain sections were allowed to recover at 32° C. for 1 hour before being equilibrated to room temperature. For electrophysiological recordings, brain sections were transferred to a recording chamber constantly perfused with heated ACSF (32° C.) and bubbled with 95% O2/5% CO2. Subsequently, the slices were used for electrophysiological recordings. All electrophysiological recordings were performed using the patch-clamp technique in the whole-cell configuration. […] Membrane capacity and resistance were assessed in the same neurons. […]

gephyrin and GABAA-R = experiment: Immunofluorescence of gephyrin and GABAA-R co-localization in hippocampus CA3 and CA1; type: in vivo, mouse; conditions: Ts2Cje mice, confocal microscopy
Description: Brains were placed in 4% paraformaldehyde for 24 hours. Brains were then fixed over the subsequent 48 hours in a 20% sucrose solution. Brain sections were then cut to a thickness of 15 μm using a cryostat (Leica System) and stored in an aqueous solution of PBS containing 0.02% NaN3 at 4° C. until use. Slices thus obtained were mounted on slides and were blocked and permeabilized by blocking solution (10% of normal goat serum and 0.2% Triton X-100 in TBS) for 2 hours.
The following day, the same slices were incubated with a mix of fluorescent secondary antibodies, to evaluate the co-localization of the two proteins, anti-mouse Alexa Fluor 488 nm for gephyrin and anti-rabbit Alexa Fluor 594 nm for GABA α2 (1:1500, Invitrogen, Carlsbad, California, CA, USA) for 2 hours at room temperature. The slices were then washed again and incubated with DAPI nuclear marker (1:10000, Invitrogen, Carlsbad, California, CA, USA). To subtract the non-specific background signal created by the secondary antibody, some sections were incubated only with the secondary antibody. Finally, the sample was sealed with a cover slip via fluorimount (Sigma-Aldrich, St Louis, MO, USA). The acquisition and analysis of brain sections was carried out using Leica TCS SP5× confocal microscopy and ImageJ analysis software.

Q: With `N[C@@H](CC(=O)N1CCn2c(nnc2C(F)(F)F)C1)Cc1cc(F)c(F)cc1F` [sitagliptin, (R)-4-oxo-4-[3-(trifluoromethyl)-5,6-dihydro[1,2,4]triazole[4,3-a]pyrazin-7(8H)-yl]-1-(2,4,5-trifluorophenyl)butan-2-amine] as the compound, how does the “spontaneous release rate of the neurotransmitter, CA1 hippocampal neurons” value [1] read?
A: The value was “completely reverts the increase in the spontaneous release rate of the neurotransmitter”.

Q: And the “clusters of gephyrin and GABAA-R at the synaptic level” value (gephyrin and GABAA-R)?
A: Its value is “reduction of the clusters of gephyrin and GABAA-R”.
